According to BindingDB's records for doi:10.7270/Q2X065GM (Sanford-Burnham Center for Chemical Genomics, 2008):

Target: T1, Bcl-2-related protein A1 (Mus musculus, UniProt Q07440)
T1 sequence (Q07440 whole entry): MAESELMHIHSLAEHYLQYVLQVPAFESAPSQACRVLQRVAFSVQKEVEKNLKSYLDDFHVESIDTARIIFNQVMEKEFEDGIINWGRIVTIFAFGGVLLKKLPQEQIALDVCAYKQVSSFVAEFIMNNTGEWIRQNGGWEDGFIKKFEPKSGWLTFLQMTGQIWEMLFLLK
Experiment: Bfl-1 binding inhibitors, SAR follow-up, biochemical, fluorescence polarization (AID 1070)

IC50 | SMILES
12.6 µM | COCC=Nc1c(Cl)c(O)n(-c2ccc(Cl)c(Cl)c2)c1O [3-chloranyl-1-(3,4-dichlorophenyl)-4-(2-methoxyethylamino)pyrrole-2,5-dione]
1.7 µM | Cc1ccc(N=C2C(=O)N(c3ccc(C)cc3)C(=O)C2Cl)cc1 (configuration not stated) [3-chloranyl-1-(4-methylphenyl)-4-[(4-methylphenyl)amino]pyrrole-2,5-dione]
